Test results reported in patent publication US10407422B2, “Triazolopyridine inhibitors of myeloperoxidase” (priority 2015, dated 2019).

Assays:
myeloperoxidase (MPO) [1] = target: T1, myeloperoxidase (MPO) (Homo sapiens (Human), UniProt P05164); assay: MPO chlorination assay (APF assay); format: biochemical; conditions: potency range class
Method: [formula] where A=minimal Y value (activity level of inhibited sample), B=maximal Y value (activity level of uninhibited sample), C=Log IC50, D=Hill Slope, x=concentration of inhibitor. MPO Chlorination Assay (APF Assay) MPO chlorination activity was measured in 100 mM KPi (pH 7.4) by utilizing the non-fluorescent reagent Aminophenyl fluorescein (APF, Invitrogen Cat. #A36003). APF is cleaved by (—OCl) to yield the fluorescent compound fluorescein. Reactions were carried out in 50 μL total volume by adding a 25 μL mixture of 200 pM myeloperoxidase and 120 mM NaCl to 100 nL inhibitor in 100% DMSO in a 384 well, non-binding surface clear bottom plate (Corning #3655). Enzyme, inhibitor, and chloride were preincubated for ten minutes at room temperature. After the ten minute preincubation, 25 μL of an APF mixture containing […], 120 mM NaCl and 10 μM H2O2 was added to the plate using the internal dispensing system of a Hammatsu FDSS 6000. Kinetic determinations were carried out immediately on the FDSS 6000 (3 minute kinetic read, 1 read every second, ex: 485 nm, em: 535 nm). IC50 values for inhibitors were calculated by taking the slope of the linear portion of the kinetic measurement (20 seconds to ˜80-120 secs). IC50 values were calculated by determining the slope of the linear portion of the kinetic trace […], and using that calculated slope to determine % inhibition occurring at each concentration of inhibitor using the following equation: [formula] where A=minimal Y value (activity level of inhibited sample), B=maximal Y value (activity level of uninhibited sample), C=Log IC50, D=Hill Slope, x=concentration of inhibitor. EPX Bromination Assay

myeloperoxidase (MPO) [2] = target: T1, myeloperoxidase (MPO); assay: MPO peroxidation assay (Amplex Red assay); format: biochemical; conditions: potency range class
Method: MPO Peroxidation Assay (Amplex Red Assay) MPO peroxidation activity was measured in 100 mM KPi (pH 7.4) by utilizing the non-fluorescent reagent Amplex Red (Invitrogen Cat. #A12222) which can be oxidized to the highly fluorescent resorufin. Amplex Red is oxidized by the peroxidase action of MPO to resorufin. Reactions were carried out in 50 μL total volume by adding a 25 μL mixture of 200 pM myeloperoxidase and 40 nM H2O2(Sigma #349887) to 100 nL inhibitor in 100% DMSO in a 384 well Perkin Elmer Optiplate. Enzyme and compound were preincubated for ten minutes at room temperature. After the ten minute preincubation, 25 μL of an Amplex Red mixture containing 200 μM Amplex Red and 10 mM H2O2 was added to the plate. Kinetic determinations were carried out immediately on a Perkin Elmer Envision (15 minute kinetic read, Ex: 535 nm, Em: 590 nm). IC50 values were calculated by determining the slope of the linear portion of the kinetic trace (180-540 secs), and using that calculated slope to determine % inhibition occurring at each concentration of inhibitor using the following equation: [formula] where A=minimal Y value (activity level of inhibited sample), B=maximal Y value (activity level of uninhibited sample), C=Log IC50, D=Hill Slope, x=concentration of inhibitor. MPO Chlorination Assay (APF Assay)

T1 sequence (P05164 49-745): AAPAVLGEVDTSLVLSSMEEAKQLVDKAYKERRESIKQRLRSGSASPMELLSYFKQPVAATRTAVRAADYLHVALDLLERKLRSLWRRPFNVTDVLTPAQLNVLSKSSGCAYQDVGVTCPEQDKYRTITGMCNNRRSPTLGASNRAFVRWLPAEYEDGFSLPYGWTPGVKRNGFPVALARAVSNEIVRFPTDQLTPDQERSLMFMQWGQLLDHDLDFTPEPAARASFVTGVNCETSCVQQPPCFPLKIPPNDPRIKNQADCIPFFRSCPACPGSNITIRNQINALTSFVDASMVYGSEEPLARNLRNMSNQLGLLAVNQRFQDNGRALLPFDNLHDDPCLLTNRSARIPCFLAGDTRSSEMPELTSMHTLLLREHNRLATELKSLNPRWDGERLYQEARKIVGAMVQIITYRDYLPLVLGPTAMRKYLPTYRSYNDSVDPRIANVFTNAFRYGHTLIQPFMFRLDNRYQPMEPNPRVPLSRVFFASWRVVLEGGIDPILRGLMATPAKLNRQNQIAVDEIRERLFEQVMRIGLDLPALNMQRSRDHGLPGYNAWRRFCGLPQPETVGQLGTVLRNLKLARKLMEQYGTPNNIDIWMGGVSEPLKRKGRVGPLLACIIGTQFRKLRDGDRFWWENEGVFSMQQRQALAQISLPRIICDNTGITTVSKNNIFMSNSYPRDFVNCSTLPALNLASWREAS

IC50 (myeloperoxidase (MPO) [1])	IC50 (myeloperoxidase (MPO) [2])	SMILES
1 to 100 nM	1 to 100 nM	Nc1cc(Cc2cnn(CC3Cc4ccccc4C3)c2)c2nn[nH]c2n1 [Example 118, 7-((1-((2,3-Dihydro-1H-inden-2-yl)methyl)-1H-pyrazol-4-yl)methyl)-3H-[1,2,3]triazolo[4,5-b]pyridin-5-amine]
1 to 100 nM	1 to 100 nM	Nc1cc(Cc2cnn(Cc3cc([C@@H]4CCNC4)ccc3OC(F)F)c2)c2nn[nH]c2n1 [Example 200, 7-[(1-{[2-(Difluoromethoxy)-5-[(3 S)-pyrrolidin-3-yl]phenyl]methyl}-1H-pyrazol-4-yl)methyl]-3H-[1,2,3]triazolo[4,5-b]pyridin-5-amine]
1 to 100 nM	1 to 100 nM	Nc1cc(Cc2cnn(Cc3ccc4c(c3)CCC[C@@H]4N)c2)c2nn[nH]c2n1 [Example 267, 7-[(1-{[(5S)-5-Amino-5,6,7,8-tetrahydronaphthalen-2-yl]methyl}-1H-pyrazol-4-yl)methyl]-3H-[1,2,3]triazolo[4,5-b]pyridin-5-amine]
101 to 999 nM	101 to 999 nM	Nc1cc(Cn2nnc3ccc(Cl)cc32)c2nn[nH]c2n1 [Example 167, 7-[(6-Chloro-1H-1,2,3-benzotriazol-1-yl)methyl]-3H-[1,2,3]triazolo[4,5-b]pyridin-5-amine]
1 to 100 nM	1 to 100 nM	Nc1cc(Cc2cnn(Cc3cccc(-c4ccccc4)c3)c2)c2nn[nH]c2n1 [Example 44, 7-((1-([1,1′-Biphenyl]-3-ylmethyl)-1H-pyrazol-4-yl)methyl)-3H-[1,2,3]triazolo[4,5-b]pyridin-5-amine]
1 to 100 nM	1 to 100 nM	Nc1cc(Cc2cnn(Cc3cc([C@@H]4CCNC4)cc(F)c3F)c2)c2nn[nH]c2n1 [Example 199, 7-{[1-({2,3-Difluoro-5-[(3S)-pyrrolidin-3-yl]phenyl}methyl)-1H-pyrazol-4-yl]methyl}-3H-[1,2,3]triazolo[4,5-b]pyridin-5-amine]
101 to 999 nM	101 to 999 nM	Nc1cc(Cc2cnn(Cc3ccc(C(F)(F)F)cc3)c2)c2nn[nH]c2n1 [Example 103, 7-((1-(4-(Trifluoromethyl)benzyl)-1H-pyrazol-4-yl)methyl)-3H-[1,2,3]triazolo[4,5-b]pyridin-5-amine]
101 to 999 nM	1 to 100 nM	COc1nccc2ccc(Cn3cc(Cc4cc(N)nc5[nH]nnc45)cn3)cc12 [Example 174, 7-((1-((1-Methoxyisoquinolin-7-yl)methyl)-1H-pyrazol-4-yl)methyl)-3H-[1,2,3]triazolo[4,5-b]pyridin-5-amine]
101 to 999 nM	1 to 100 nM	CCCNC(=O)c1ccc(Cn2cc(Cc3cc(N)nc4[nH]nnc34)cn2)cc1 [Example 88, 4-{[4-({5-Amino-3H-[1,2,3]triazolo[4,5-b]pyridin-7-yl}methyl)-1H-pyrazol-1-yl]methyl}-N-propylbenzamide]
101 to 999 nM	1 to 100 nM	Nc1cc(Cc2cnn(Cc3ccc(C(=O)NCc4ncc[nH]4)cc3)c2)c2nn[nH]c2n1 [Example 74, N-((1H-Imidazol-2-yl)methyl)-4-((4-((5-amino-3H-[1,2,3]triazolo[4,5-b]pyridin-7-yl)methyl)-H-pyrazol-1-yl)methyl)benzamide]
101 to 999 nM	1 to 100 nM	Nc1cc(Cc2cnn(CC3CCN(Cc4ccccc4)C3)c2)c2nn[nH]c2n1 (centres unmarked) [Example 184, 7-({1-[(1-Benzylpyrrolidin-3-yl)methyl]-1H-pyrazol-4-yl}methyl)-3H-[1,2,3]triazolo[4,5-b]pyridin-5-amine]
101 to 999 nM	101 to 999 nM	Nc1cc(Cc2cnn(Cc3ccc4c(c3)CCN(C(=O)c3ncc[nH]3)C4)c2)c2nn[nH]c2n1 [Example 131, (6-((4-((5-Amino-3H-[1,2,3]triazolo[4,5-b]pyridin-7-yl)methyl)-1H-pyrazol-1-yl)methyl)-3,4-dihydroisoquinolin-2(1H)-yl)(1H-imidazol-2-yl)methanone]
101 to 999 nM	101 to 999 nM	Nc1cc(Cc2cnn(Cc3ccc4c(c3)C(C(F)(F)F)NCC4)c2)c2nn[nH]c2n1 (centres unmarked) [Example 262, 7-[(1-{[1-(Trifluoromethyl)-1,2,3,4-tetrahydroisoquinolin-7-yl]methyl}-1H-pyrazol-4-yl)methyl]-3H-[1,2,3]triazolo[4,5-b]pyridin-5-amine]
101 to 999 nM	101 to 999 nM	Nc1cc(Cc2cnn(Cc3cccc(OCCC4CCc5ccccc54)c3)c2)c2nn[nH]c2n1 (centres unmarked) [Example 233, 7-{[1-({3-[2-(2,3-Dihydro-1H-inden-1-yl)ethoxy]phenyl}methyl)-1H-pyrazol-4-yl]methyl}-3H-[1,2,3]triazolo[4,5-b]pyridin-5-amine]
101 to 999 nM	1 to 100 nM	CN1CCc2cc(Cn3cc(Cc4cc(N)nc5[nH]nnc45)cn3)ccc2C1 [Example 159, -((1-((2-Methyl-1,2,3,4-tetrahydroisoquinolin-6-yl)methyl)-1H-pyrazol-4-yl)methyl)-3H-[1,2,3]triazolo[4,5-b]pyridin-5-amine]
1 to 100 nM	101 to 999 nM	Nc1cc(Cc2cnn(Cc3cccc(N4C[C@@H]5C[C@H]4CN5)c3)c2)c2nn[nH]c2n1 [Example 224, 7-{[1-({3-[(1S,4S)-2,5-Diazabicyclo[2.2.1]heptan-2-yl]phenyl}methyl)-1H-pyrazol-4-yl]methyl}-3H-[1,2,3]triazolo[4,5-b]pyridin-5-amine]
1 to 100 nM	1 to 100 nM	C[C@@H]1CN(c2cccc(Cn3cc(Cc4cc(N)nc5[nH]nnc45)cn3)c2)C[C@H](C)N1 [Example 221, 7-{[1-({3-[cis-3,5-Dimethylpiperazin-1-yl]phenyl}methyl)-1H-pyrazol-4-yl]methyl}-3H-[1,2,3]triazolo[4,5-b]pyridin-5-amine]
101 to 999 nM	1 to 100 nM	Nc1cc(Cc2cnn(Cc3cccc(CN4CCNCC4)c3)c2)c2nn[nH]c2n1 [Example 182, 7-[(1-{[3-(Piperazin-1-ylmethyl)phenyl]methyl}-1H-pyrazol-4-yl)methyl]-3H-[1,2,3]triazolo[4,5-b]pyridin-5-amine]
1 to 100 nM	1 to 100 nM	Nc1cc(Cc2cnn(-c3ccccn3)c2)c2nn[nH]c2n1 [Example 31, 7-((1-(Pyridin-2-yl)-1H-pyrazol-4-yl)methyl)-3H-[1,2,3]triazolo[4,5-b]pyridin-5-amine]
1 to 100 nM	1 to 100 nM	Nc1cc(Cc2cnn(-c3cccc(-c4ccccc4)c3)c2)c2nn[nH]c2n1 [Example 11, 7-((1-([1,1′-Biphenyl]-3-yl)-1H-pyrazol-4-yl)methyl)-3H-[1,2,3]triazolo[4,5-b]pyridin-5-amine]
101 to 999 nM	1 to 100 nM	CC(CO)NC(=O)c1ccc(Cn2cc(Cc3cc(N)nc4[nH]nnc34)cn2)cc1 (centres unmarked) [Example 87, 4-{[4-({5-Amino-3H-[1,2,3]triazolo[4,5-b]pyridin-7-yl}methyl)-1H-pyrazol-1-yl]methyl}-N-(1-hydroxypropan-2-yl)benzamide]
101 to 999 nM	1 to 100 nM	Nc1cc(Cc2cnn(Cc3cccc(O[C@H]4CN[C@H](CO)C4)c3)c2)c2nn[nH]c2n1 [Example 248, [(2S,4R)-4-(3-{[4-({5-Amino-3H-[1,2,3]triazolo[4,5-b]pyridin-7-yl}methyl)-1H-pyrazol-1-yl]methyl}phenoxy)pyrrolidin-2-yl]methanol]
101 to 999 nM	1 to 100 nM	Cc1cc(-n2cc(Cc3cc(N)nc4[nH]nnc34)cn2)ccc1F [Example 10, 7-((1-(4-Fluoro-3-methylphenyl)-1H-pyrazol-4-yl)methyl)-3H-[1,2,3]triazolo[4,5-b]pyridin-5-amine]
101 to 999 nM	1 to 100 nM	Cn1nnc2cc(Cn3cc(Cc4cc(N)nc5[nH]nnc45)cn3)ccc21 [Example 179, 7-({1-[(1-Methyl-1H-1,2,3-benzotriazol-5-yl)methyl]-1H-pyrazol-4-yl}methyl)-3H-[1,2,3]triazolo[4,5-b]pyridin-5-amine]
101 to 999 nM	101 to 999 nM	Nc1cc(Cc2cnn(Cc3ccc(C(=O)NCCN4CCOCC4)cc3)c2)c2nn[nH]c2n1 [Example 75, 4-{[4-({5-Amino-3H-[1,2,3]triazolo[4,5-b]pyridin-7-yl}methyl)-1H-pyrazol-1-yl]methyl}-N-[2-(morpholin-4-yl)ethyl]benzamide]
